Laboratory results reported in ChEMBL document CHEMBL4130567, “Discovery of Thiophene[3,2-d]pyrimidine Derivatives as Potent HIV-1 NNRTIs Targeting the Tolerant Region I of NNIBP” (ACS Med Chem Lett, 2017).
pEC50, pIC50: −log10 of the molar value.

Experiments:
[1] = Cytotoxicity against human MT4 cells assessed as reduction in cell viability after 5 days by MTT assay; format: cell-based
[2] = biological target: Human immunodeficiency virus type 1 reverse transcriptase (Human immunodeficiency virus 1, UniProt Q72547); assay: Inhibition of recombinant wild type HIV1 reverse transcriptase using DIG-labeled dUTP/biotin-labeled dUTP and dTTP as template and viral nucleotides assessed as decrease in biotin-dUTP incorporation after 1 hr by ELISA
[3] = tested on: Human immunodeficiency virus 1; assay: Antiviral activity against HIV1 3B harboring reverse transcriptase RES056 double mutant infected in human MT4 cells assessed as inhibition of virus-induced cytopathic effect after 5 days by MTT assay; format: functional, organism-based; settings: Human immunodeficiency virus 1, 3B, MT4, 120 h
[4] = tested on: Human immunodeficiency virus 1; assay: Antiviral activity against HIV1 3B harboring reverse transcriptase Y181C mutant infected in human MT4 cells assessed as inhibition of virus-induced cytopathic effect after 5 days by MTT assay; format: functional, organism-based; settings: Human immunodeficiency virus 1, 3B, MT4, 120 h
[5] = tested on: Human immunodeficiency virus 1; assay: Antiviral activity against HIV1 3B harboring reverse transcriptase Y188L mutant infected in human MT4 cells assessed as inhibition of virus-induced cytopathic effect after 5 days by MTT assay; format: functional, organism-based; settings: Human immunodeficiency virus 1, 3B, MT4, 120 h
[6] = tested on: Human immunodeficiency virus 1; assay: Antiviral activity against HIV1 3B harboring reverse transcriptase K103N mutant infected in human MT4 cells assessed as inhibition of virus-induced cytopathic effect after 5 days by MTT assay; format: functional, organism-based; settings: Human immunodeficiency virus 1, 3B, MT4, 120 h
[7] = tested on: Human immunodeficiency virus 2; assay: Antiviral activity against HIV2 ROD infected in human MT4 cells assessed as inhibition of virus-induced cytopathic effect after 5 days by MTT assay; format: functional, organism-based; settings: Human immunodeficiency virus 2, ISOLATE ROD, MT4, 120 h
[8] = tested on: Human immunodeficiency virus 1; assay: Antiviral activity against HIV1 3B harboring reverse transcriptase E138K mutant infected in human MT4 cells assessed as inhibition of virus-induced cytopathic effect after 5 days by MTT assay; format: functional, organism-based; settings: Human immunodeficiency virus 1, 3B, MT4, 120 h
[9] = tested on: Human immunodeficiency virus 1; assay: Antiviral activity against wild type HIV1 3B infected in human MT4 cells assessed as inhibition of virus-induced cytopathic effect after 5 days by MTT assay; format: functional, organism-based; settings: Human immunodeficiency virus 1, 3B, MT4, 120 h
[10] = Selectivity index, ratio of CC50 for human MT4 cells to EC50 for wild type HIV1 3B infected in human MT4 cells; format: toxicity, cell-based; settings: MT4 cells infected with wild type HIV1 3B, read-out: Ratio CC50/EC50
[11] = tested on: Human immunodeficiency virus 1; assay: Antiviral activity against HIV1 3B harboring reverse transcriptase L100I mutant infected in human MT4 cells assessed as inhibition of virus-induced cytopathic effect after 5 days by MTT assay; format: functional, organism-based; settings: Human immunodeficiency virus 1, 3B, MT4, 120 h
[12] = tested on: Human immunodeficiency virus 1; assay: Antiviral activity against HIV1 3B harboring reverse transcriptase F227L/V106A double mutant infected in human MT4 cells assessed as inhibition of virus-induced cytopathic effect after 5 days by MTT assay; format: functional, organism-based; settings: Human immunodeficiency virus 1, 3B, MT4, 120 h

SMILES	CC50 at 120 h [1]	pIC50 [2]	pEC50 [3]	pEC50 [4]	pEC50 [5]	pEC50 [6]	pEC50 [7]	pEC50 [8]	pEC50 [9]	selectivity ratio [10]	pEC50 [11]	pEC50 [12]
CC(=O)Nc1ccc(S(=O)(=O)NC2CCC(Nc3nc(Oc4c(C)cc(C#N)cc4C)c4sccc4n3)CC2)cc1 (stereo not given)	3730 nM	5.98	< 5.43	6.29	6.04	7.49	< 5.43	7.46	8.00	340	6.25	5.92
Cc1cc(C#N)cc(C)c1Oc1nc(NC2CCC(NC(=O)c3ccc(C#N)cc3)CC2)nc2ccsc12 (stereo not given)	2620 nM		< 5.58	< 5.58	< 5.58	≤ 5.84	< 5.58	6.13	6.86	19	< 5.58	< 5.58
Cc1cc(C#N)cc(C)c1Oc1nc(NC2CCC(NS(=O)(=O)c3ccc(Br)cc3)CC2)nc2ccsc12 (stereo not given)	5860 nM		5.23	6.07	5.65	6.88	< 5.23	6.90	7.60	231	6.08	≤ 5.21
Cc1cc(C#N)cc(C)c1Oc1nc(NC2CCC(NC(=O)c3ccc(Br)cc3)CC2)nc2ccsc12 (stereo not given)	2850 nM		< 5.55	< 5.55	< 5.55	6.28	< 5.55	6.43	7.52	93	< 5.55	< 5.55
Cc1cc(C#N)cc(C)c1Oc1nc(NC2CCC(NS(=O)(=O)c3cccc(C(F)(F)F)c3)CC2)nc2ccsc12 (stereo not given)	6680 nM		< 5.17	≤ 5.36	< 5.17	6.24	< 5.18	6.19	7.07	78	≤ 5.39	< 5.17
Cc1cc(C#N)cc(C)c1Oc1nc(NC2CCC(NS(=O)(=O)c3ccc(F)cc3)CC2)nc2ccsc12 (stereo not given)	3530 nM		< 5.45	6.33	< 5.45	6.99	< 5.45	7.12	8.04	383	6.39	< 5.45
Cc1cc(C#N)cc(C)c1Oc1nc(NC2CCC(NC(=O)c3ccccc3)CC2)nc2ccsc12 (stereo not given)	3930 nM		< 5.41	≤ 5.82	< 5.41	6.56	< 5.41	6.74	7.89	294	< 5.41	< 5.41
Cc1cc(C#N)cc(C)c1Oc1nc(NC2CCC(NC(=O)c3cccc(C(F)(F)F)c3)CC2)nc2ccsc12 (stereo not given)	3240 nM		< 5.49	< 5.49	< 5.49	< 5.49	< 5.49	≤ 5.88	6.71	17	< 5.49	< 5.49
Cc1cc(C#N)cc(C)c1Oc1nc(NC2CCC(NS(=O)(=O)c3ccc(C#N)cc3)CC2)nc2ccsc12 (stereo not given)	9290 nM	5.94	< 5.03	6.37	6.17	7.15	< 5.03	7.35	8.15	1310	6.37	5.45
Cc1cc(C#N)cc(C)c1Oc1nc(NC2CCC(NC(=O)c3ccc(F)cc3)CC2)nc2ccsc12 (stereo not given)	3180 nM		< 5.50	< 5.50	< 5.50	6.32	< 5.50	6.64	7.59	121	< 5.50	< 5.50
Cc1cc(C#N)cc(C)c1Oc1nc(Nc2ccc(C#N)cc2)nc(N)c1Br [ETRAVIRINE]	2180 nM		7.59	7.72	7.70	8.47			8.55		8.01	7.64
Cc1cn([C@H]2C[C@H](N=[N+]=[N-])[C@@H](CO)O2)c(=O)[nH]c1=O [ZIDOVUDINE]	> 7480 nM		7.96	8.20	8.10	8.11	8.10	7.77		> 664	8.27	8.28
